{"source": "paper PMC11881343", "about": "“Safety of ilunocitinib tablets (Zenrelia™) after once daily oral administration in dogs” (BMC Veterinary Research, 2025)", "key": {"dogs": {"test_system": "dogs", "set-up": "method as in internal report", "settings": "dogs maintained on concrete floors with corn cob bedding; ref internal report; cited from earlier work"}, "healthy Beagle dogs [1]": {"test_system": "healthy Beagle dogs", "assay": "6-month safety study: organ weights, gross and microscopic examinations", "settings": "5X group", "protocol": "At study termination (study day 183), the dogs were humanely euthanized by an intravenous injection of pentobarbital sodium/phenytoin solution under sedation with 6.6–13.2 mg/kg Telazol® (tiletamine/zolazepam) subcutaneous injection. Gross and microscopic examinations were carried out on all animals by a board-certified veterinary pathologist."}, "[2]": {"settings": "dog, in vivo", "protocol": "Samples were collected at pre-dose and at 0.5, 1, 2, 5, 8 and 24 h post-dosing on the day of the first and last dose (study days 1 and 182) and at pre-dose and at 1 and 24 h post-dosing at study day 85. Blood samples were collected in tubes containing K2 EDTA. Blood was processed to plasma within one hour of collection and plasma samples were stored frozen at -20 °C until analyzed.\nThe bioanalytical data were processed as individual concentration vs. time profiles using a non-compartmental analysis (NCA). Calculations were performed with the software Phoenix WinNonlin (version 8.3; Certara, USA). Tmax and Cmax were derived from observed values. AUCs were calculated using the Linear Up Log Down method. In addition, T1/2 was calculated using the best fit method and dose, time and sex effects were evaluated based on Cmax and AUClast ratios."}, "[3]": {"settings": "tablets, dogs; no reference given; cited from earlier work"}, "healthy Beagle dogs [4]": {"test_system": "healthy Beagle dogs", "assay": "6-month safety study: clinical pathology (hematology, coagulation, clinical chemistry, C-reactive protein, urinalysis)", "assay_type": "in vivo, dog", "settings": "for MCHC, effect compared to 0X / Hb (hemoglobin), effect compared to 0X / Total Protein, effect compared to 0X / MCH, effect compared to 0X / HCT (hematocrit), effect compared to 0X / RBC, effect compared to 0X: all study days; for Hb (hemoglobin), effect compared to 0X / HCT (hematocrit), effect compared to 0X / RBC, effect compared to 0X: pooled sexes; for Total Protein, effect compared to 0X: significant in pooled by sex, males (2X, 3X, 5X) females (3X, 5X); for Albumin, effect compared to 0X: beginning on study day 57; for Eosinophils, effect compared to 0X: study days 29–183, females only; for Fibrinogen, effect compared to 0X: study days 57–183, association with interdigital cysts", "method": "Blood samples were collected from the jugular vein for the evaluation of hematology, clinical chemistry and coagulation variables at pre-test, and on study days 29, 57, 85, 113, 141, 169 and 183. The complete panel of clinical pathology parameters (hematology, blood chemistry and urinalysis) according to VICH Guideline 43 [10] are listed in Table 1. Urine samples were collected using steel pans placed under the cages for at least 16 h at the same timepoints.\nEndpoints measured multiple times post-treatment that included a pre-treatment measurement (Serum chemistry, C-reactive protein, coagulation, hematology, urinalysis, body weight, body weight changes and food consumption) were analyzed using repeated measures analysis of covariance (RMANCOVA) with ‘treatment’, ‘time’, and ‘sex’; the two-way interactions ‘treatment by time’, ‘treatment by sex’, and ‘sex by time’; the three-way interaction ‘treatment by time by sex’ and a covariate all as fixed effects. The last available pre-treatment value was used as the covariate.\nIf the interaction terms were significant (P ≤ 0.10 level for two-way interactions and P ≤ 0.05 for the three-way interaction), treated groups were compared to the control either within each sex (treatment by sex significant), within each time point (treatment by time significant) or main effect only (neither treatment by sex nor treatment by time significant)."}, "[5]": {"settings": "males at 2X, 3X, and 5X and females at 5X, beginning study day 57, 85, or 113 through study day 183"}}}
{"smiles": "N#CCC1(n2cc(-c3ncnc4[nH]ccc34)cn2)CN(S(=O)(=O)C2CC2)C1", "note": "[ilunocitinib]", "values": [{"measurement": "interdigital cysts (IDC)", "setting": "dogs", "value": "not observed"}, {"measurement": "Prostate weight, prostate weight as a percent of body weight and ratio of prostate weight to brain weight vs controls", "setting": "healthy Beagle dogs [1]", "value": "significantly decreased"}, {"measurement": "half-life", "setting": "[2]", "value": "approximately 3 h"}, {"measurement": "increase of exposure with dose", "setting": "[2]", "value": "close to dose proportional"}, {"measurement": "increase in oral bioavailability when given with food or after feeding", "setting": "[3]", "value": "~20", "unit": "%"}, {"measurement": "red cell parameters", "setting": "healthy Beagle dogs [4]; 1X group", "value": "stayed within the reference range"}, {"measurement": "MCHC, effect compared to 0X", "setting": "healthy Beagle dogs [4]; 2X (1.6 mg/kg/day)", "value": "minimally lower and ↓"}, {"measurement": "Hb (hemoglobin), effect compared to 0X", "setting": "healthy Beagle dogs [4]; 2X (1.6 mg/kg/day)", "value": "minimally lowered and ↓"}, {"measurement": "Total Protein, effect compared to 0X", "setting": "healthy Beagle dogs [4]; 2X (1.6 mg/kg/day)", "value": "↑"}, {"measurement": "MCH, effect compared to 0X", "setting": "healthy Beagle dogs [4]; 3X (2.4 mg/kg/day)", "value": "minimally lower and ↓"}, {"measurement": "MCHC, effect compared to 0X", "setting": "healthy Beagle dogs [4]; 3X (2.4 mg/kg/day)", "value": "minimally lower and ↓"}, {"measurement": "HCT (hematocrit), effect compared to 0X", "setting": "healthy Beagle dogs [4]; 3X (2.4 mg/kg/day)", "value": "↓"}, {"measurement": "Hb (hemoglobin), effect compared to 0X", "setting": "healthy Beagle dogs [4]; 3X (2.4 mg/kg/day)", "value": "minimally lowered and ↓"}, {"measurement": "RBC, effect compared to 0X", "setting": "healthy Beagle dogs [4]; 3X (2.4 mg/kg/day)", "value": "↓"}, {"measurement": "Total Protein, effect compared to 0X", "setting": "healthy Beagle dogs [4]; 3X (2.4 mg/kg/day)", "value": "↑"}, {"measurement": "Albumin, effect compared to 0X", "setting": "healthy Beagle dogs [4]; 3X (2.4 mg/kg/day)", "value": "minimally lower and ↓"}, {"measurement": "Total Protein, effect compared to 0X (time by treatment interaction)", "setting": "healthy Beagle dogs [4]; 3X (2.4 mg/kg/day), study day 113", "value": "minimally higher means and ↑"}, {"measurement": "Eosinophils, effect compared to 0X", "setting": "healthy Beagle dogs [4]; 3X (2.4 mg/kg/day)", "value": "↓"}, {"measurement": "Fibrinogen, effect compared to 0X", "setting": "healthy Beagle dogs [4]; 3X (2.4 mg/kg/day)", "value": "marginally elevated concentrations and ↑"}, {"measurement": "MCH, effect compared to 0X", "setting": "healthy Beagle dogs [4]; 5X (4.0 mg/kg/day)", "value": "minimally lower and ↓"}, {"measurement": "MCHC, effect compared to 0X", "setting": "healthy Beagle dogs [4]; 5X (4.0 mg/kg/day)", "value": "minimally lower and ↓"}, {"measurement": "HCT (hematocrit), effect compared to 0X", "setting": "healthy Beagle dogs [4]; 5X (4.0 mg/kg/day)", "value": "↓"}, {"measurement": "Hb (hemoglobin), effect compared to 0X", "setting": "healthy Beagle dogs [4]; 5X (4.0 mg/kg/day)", "value": "minimally lowered and ↓"}, {"measurement": "RBC, effect compared to 0X", "setting": "healthy Beagle dogs [4]; 5X (4.0 mg/kg/day)", "value": "↓"}, {"measurement": "Total Protein, effect compared to 0X", "setting": "healthy Beagle dogs [4]; 5X (4.0 mg/kg/day)", "value": "↑"}, {"measurement": "Albumin, effect compared to 0X", "setting": "healthy Beagle dogs [4]; 5X (4.0 mg/kg/day)", "value": "minimally lower and ↓"}, {"measurement": "Eosinophils, effect compared to 0X", "setting": "healthy Beagle dogs [4]; 5X (4.0 mg/kg/day)", "value": "↓"}, {"measurement": "Fibrinogen, effect compared to 0X", "setting": "healthy Beagle dogs [4]; 5X (4.0 mg/kg/day)", "value": "marginally elevated concentrations and ↑"}, {"measurement": "Total Protein, effect compared to 0X (time by treatment interaction)", "setting": "healthy Beagle dogs [4]; 5X (4.0 mg/kg/day), study days 85,113,141", "value": "minimally higher means and ↑"}, {"measurement": "myeloid: erythroid ratios", "setting": "healthy Beagle dogs [4]; Two dogs in the 5X group", "value": "minimally lower"}, {"measurement": "effects on lymphocytes, monocytes, basophils and reticulocytes", "setting": "healthy Beagle dogs [4]; all dose levels", "value": "no treatment-related effects"}, {"measurement": "alkaline phosphatase, alanine aminotransferase, aspartate aminotransferase, triglycerides, plasma creatinine and urea levels or any other clinical chemistry parameters", "setting": "healthy Beagle dogs [4]; all treatment groups, within normal ranges", "value": "No changes"}, {"measurement": "effects on urinalysis endpoints", "setting": "healthy Beagle dogs [4]; either sex at any dose level", "value": "no test article-related effects"}, {"measurement": "C-reactive protein (CRP) levels", "setting": "healthy Beagle dogs [4]; elevated doses, dogs with visible skin disease", "value": "higher"}, {"measurement": "Total protein values in males vs control", "setting": "healthy Beagle dogs [4]; males at 2X, 3X, and 5X", "value": "significantly (p = 0.0437) higher"}, {"measurement": "Mean globulin concentrations vs control means", "setting": "healthy Beagle dogs [4]; [5]", "value": "minimally higher"}, {"measurement": "mean albumin/globulin ratios vs control means", "setting": "healthy Beagle dogs [4]; [5]", "value": "minimally to mildly lower"}, {"measurement": "prothrombin time and activated partial thromboplastin time", "setting": "healthy Beagle dogs [4]; throughout the study, all dose levels", "value": "remained in the reference range"}]}
